The values that follow come from ChEMBL document CHEMBL4020780, “Evaluation of synthesized coumarin derivatives on aromatase inhibitory activity” (Bioorg Med Chem Lett, 2017).

As a reminder, the IC50 is the concentration at which inhibition is half-maximal. Low readings indicate inhibition by little substance, high ones a need for much substance.

In one data set the target is T1, Aromatase (Homo sapiens, UniProt P11511).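 Further: tritiated androstenedione turnover by human CYP19 with NADPH over 15 min, measured through liquid scintillation counting, value is the concentration halving enzyme activity.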
T1 sequence (P11511 whole entry): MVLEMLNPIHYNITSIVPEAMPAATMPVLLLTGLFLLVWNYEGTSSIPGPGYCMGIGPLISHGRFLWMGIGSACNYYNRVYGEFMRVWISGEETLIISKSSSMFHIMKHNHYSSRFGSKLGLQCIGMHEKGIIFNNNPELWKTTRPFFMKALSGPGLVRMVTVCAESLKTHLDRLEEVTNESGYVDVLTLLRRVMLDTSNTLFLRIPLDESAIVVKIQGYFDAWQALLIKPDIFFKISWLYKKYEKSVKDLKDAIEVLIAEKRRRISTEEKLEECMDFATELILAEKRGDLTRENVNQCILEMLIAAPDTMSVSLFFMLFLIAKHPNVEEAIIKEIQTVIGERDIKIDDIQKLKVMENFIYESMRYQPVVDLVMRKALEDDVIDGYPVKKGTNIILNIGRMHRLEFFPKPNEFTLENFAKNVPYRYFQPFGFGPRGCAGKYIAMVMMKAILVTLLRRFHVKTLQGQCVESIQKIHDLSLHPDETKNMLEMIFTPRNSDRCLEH

Data set [1] addresses T2, CYP19 (aromatase) (Homo sapiens, UniProt P11511).
T2 sequence (P11511 whole entry): T1 sequence (P11511 whole entry)
Description: Inhibition of human CYP19 assessed as residual activity at 10 uM using [1beta-3H]-androstenedione as substrate after 15 mins in presence of NADPH by liquid scintillation counter method relative to control. The settings on record: probe [1beta-3H]-androstenedione, read-out: Activity.

In data set [2] the target is T2, CYP19 (aromatase). Description: Inhibition of human CYP19 assessed as residual activity at 0.1 uM using [1beta-3H]-androstenedione as substrate after 15 mins in presence of NADPH by liquid scintillation counter method relative to control. As to conditions: probe [1beta-3H]-androstenedione, read-out: Activity.

`O=c1ccc2ccc(-c3cccnc3)cc2o1` gave an IC50 against Aromatase of 0.0303 µM. Also, the activity at 0.25 h, 10 µM on CYP19 (aromatase) [1] came to 0%. In addition, the activity at 0.25 h, 0.1 µM at CYP19 (aromatase) [2] was 25%.

At Aromatase, `CCN(CC)c1ccc2cc(-c3nc(-c4ccccc4)cs3)c(=O)oc2c1` gave an IC50 above 10 µM. Also, on CYP19 (aromatase) [1], the activity at 0.25 h, 10 µM was 65%.

On to `COc1ccc(-c2ccc3ccc(=O)oc3c2)cc1`, for which the IC50 on Aromatase was above 10 µM.

With `O=c1ccc2ccc(-c3ccccn3)cc2o1`, the IC50 at Aromatase was above 10 µM. In addition, on CYP19 (aromatase) [1], the activity at 0.25 h, 10 µM was found to be 96%.

Consider `O=c1ccc2ccc(-c3ccccc3)cc2o1`, for which the IC50 on Aromatase was above 10 µM.

`CCOC(=O)c1oc(-c2cc3ccc(N(CC)CC)cc3oc2=O)nc1C` registered an IC50 at Aromatase above 10 µM. Besides, the activity at 0.25 h, 10 µM at CYP19 (aromatase) [1] was in the range of 22 to 104%.

On to `CCOC(=O)c1csc(-c2cc3ccc(N(CC)CC)cc3oc2=O)n1`, for which the IC50 at Aromatase came to 1.1 µM. Moreover, at CYP19 (aromatase) [1], the activity at 0.25 h, 10 µM was determined as 22%.

On Aromatase, `CCN(CC)c1ccc2cc(-c3cnco3)c(=O)oc2c1` displayed an IC50 of 3.1 µM. Moreover, the activity at 0.25 h, 10 µM at CYP19 (aromatase) [1] fell in the range of 22 to 104%.

On Aromatase, `CCN(CC)c1ccc2cc(-c3coc(-c4ccccc4)n3)c(=O)oc2c1` came in with an IC50 above 10 µM. Further, the activity at 0.25 h, 10 µM at CYP19 (aromatase) [1] fell in the range of 22 to 104%.

The compound `COc1ccc2cc(-c3cc4ccc(OC)cc4oc3=O)c(=O)oc2c1` gave an IC50 against Aromatase above 10 µM. Also, at CYP19 (aromatase) [1], the activity at 0.25 h, 10 µM was 77%.

For the compound `CCN(CC)c1ccc2cc(-c3cc4ccc(N(CC)CC)cc4oc3=O)c(=O)oc2c1`, the IC50 on Aromatase is 0.0287 µM. Also, the activity at 0.25 h, 10 µM at CYP19 (aromatase) [1] was determined as 0%. In addition, the activity at 0.25 h, 0.1 µM at CYP19 (aromatase) [2] amounted to 30%.

For `CCN(CC)c1ccc2cc(-c3nc(CC(=O)OC)cs3)c(=O)oc2c1`, the IC50 against Aromatase is above 10 µM. For the same compound, the activity at 0.25 h, 10 µM on CYP19 (aromatase) [1] was found to be 55%.

As to `CCN(CC)c1ccc2cc(-c3nc(C)cs3)c(=O)oc2c1`, the IC50 against Aromatase worked out at 1.1 µM. For the same compound, the activity at 0.25 h, 10 µM on CYP19 (aromatase) [1] stood at 15%.

For `CCN(CC)c1ccc2ccc(=O)oc2c1`, at Aromatase, the IC50 is above 10 µM. Also, the activity at 0.25 h, 10 µM at CYP19 (aromatase) [1] amounted to 86%.

`O=c1ccc2ccc(-c3ccncc3)cc2o1` returned an IC50 at Aromatase of 2.6 µM. Also, the activity at 0.25 h, 10 µM at CYP19 (aromatase) [1] was found to be 14%. In addition, the activity at 0.25 h, 0.1 µM on CYP19 (aromatase) [2] worked out at 92%.

In turn, `CCN(CC)c1ccc2cc(-c3ncco3)c(=O)oc2c1` gave an IC50 at Aromatase above 10 µM. Also, the activity at 0.25 h, 10 µM on CYP19 (aromatase) [1] lay within 22 to 104%.

On to `COc1ccc2ccc(=O)oc2c1` [HERNIARIN], for which, at Aromatase, the IC50 is above 10 µM. Also, the activity at 0.25 h, 10 µM at CYP19 (aromatase) [1] turned out to be 96%.
